Results taken from patent publication US4681894A, “Hydroxamic acids and esters” (Ortho Pharmaceutical Corporation, priority 1986, dated 1987).

Key:
[1] = system: Lewis strain laboratory rats; test: In vivo alleviation of inflammation: Mycobacterium butyricum-induced polyarthritis, inhibition of paw volume increase; parameters: species or system rat (Lewis strain); conditions: Rattus norvegicus, po, five consecutive days from day 10, paw volume about 4 h after final dose, read-out: % Inhibition Oral Dosage (percentage inhibition of pad swelling); for inhibition in vivo at 50 mg/kg: 50 mg/kg p.o.
Method: Polyarthritis was induced in Lewis strain laboratory rats (weight=about 200 grams) by injection of a suspension of Mycobacterium butyricum in mineral oil into the subplantar tissue of the mammals' hind paws. On day 10 after the injection, the rats were assigned to groups, and paw volumes and body weights were recorded. Paw volumes of the contralateral, uninjected hind paw were determined by mercury plethylsmography. Per os (p.o.) dosing began and continued for five consecutive days thereafter. On day 14 after the initial injection, approximately four hours after the final dose was administered, paw volumes and body weights were recorded and quantitated.
Anti-inflammatory activity of the substituted naphthalene compounds is expressed as the present inhibition of paw volume increase.

5-lipoxygenase = target: T1, 5-lipoxygenase (Rattus norvegicus, UniProt P12527); test: Inhibition of 5-lipoxygenase (5-HETE production) in whole RBL-1 cells; type: cell-based; conditions: in vitro, RBL-1 whole cells, A23187 1.9 μM, 55 μM 14C-arachidonic acid, 37° C; highest concentration tested 10 μM; read-out: IC50 (lipoxygenase inhibitory activity)
T1 construct: 5-HETE Production in Whole Cells; endogenous in cells; host or cells: RBL-1 (rat basophilic leukemia cells)
T1 sequence (P12527 1-673): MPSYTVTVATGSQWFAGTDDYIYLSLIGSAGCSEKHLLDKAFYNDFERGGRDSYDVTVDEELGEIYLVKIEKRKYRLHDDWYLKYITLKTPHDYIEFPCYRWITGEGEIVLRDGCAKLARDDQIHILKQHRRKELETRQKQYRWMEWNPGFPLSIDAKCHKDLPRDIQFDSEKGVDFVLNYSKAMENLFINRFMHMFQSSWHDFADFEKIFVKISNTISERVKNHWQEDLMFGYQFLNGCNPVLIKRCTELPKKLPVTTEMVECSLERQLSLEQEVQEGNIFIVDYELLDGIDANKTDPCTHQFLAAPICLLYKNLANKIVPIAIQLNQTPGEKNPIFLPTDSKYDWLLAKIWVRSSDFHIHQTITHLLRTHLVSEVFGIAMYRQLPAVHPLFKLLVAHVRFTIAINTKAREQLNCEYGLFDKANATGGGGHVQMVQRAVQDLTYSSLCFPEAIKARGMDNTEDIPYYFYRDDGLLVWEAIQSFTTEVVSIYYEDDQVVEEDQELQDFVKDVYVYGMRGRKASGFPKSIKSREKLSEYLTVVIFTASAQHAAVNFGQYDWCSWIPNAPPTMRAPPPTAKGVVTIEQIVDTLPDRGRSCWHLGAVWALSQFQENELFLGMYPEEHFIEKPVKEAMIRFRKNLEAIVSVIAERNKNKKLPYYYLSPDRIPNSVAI
Method: Rat basophilic leukemia cells (RBL-1) were grown in Eagle's Minimal Essential Medium containing 10% fetal calf serum. 5% calf serum, 1% glutamine and 50 mg/l gentamycin were maintained at 37° C. in an atmosphere containing 5% CO2. Exponentially growing cells were harvested by centrifugation at 400×g for 10 minutes at 4° C. and were washed once with Dulbecco's phosphate buffered saline containing 0.87 mM CaCl2. The cells were resuspended in the same buffer at a concentration of 1.85×10^7 cells/ml.
RBL-1 cells (1.57×10^7 cells/tube) were preincubated for 10 minutes at 37° C. in the presence of the indicated drugs or vehicle (1% DMSO). Following the transfer of the assay tubes to an icebath, the reaction was initiated by the sequential addition of calcium ionophore A23187, an agent which increases the ability of divalent ions such as Ca^++ to cross biological membranes (final concentration=1.9 μM) and 55 μM 1-^14 C-arachidonic acid (New England Nuclear) at a final specific activity of 3000-4000 cpm/nmole. The final volume in each tube was 1 ml. The assay tubes were incubated at 37° C. for 5 minutes, and the reaction was stopped by transferring the tubes to ice and adjusting the pH of the reaction mixture to pH 3.0-3.5 by the addition of 1M citric acid.
In order to isolate the Δ5 -lipoxygenase product, ^14 C-5-HETE that was formed from arachidonic acid, each assay tube was extracted once with 6 volumes of anhydrous diethyl ether. In most assays, the recovery of product was estimated by determining the total amount of radioactivity recovered after extraction. In the remaining assays the recovery of ^14 C-5-HETE was monitored by addition of trace quantities of ^3 H-5-HETE (New England Nuclear) prior to extraction. The ether fractions from each sample were dried under nitrogen, redissolved and spotted on Gleman silica gel-impregnated glass fiber sheets. The plates were developed in iso-octane:2-butanone:glacial acetic acid (100:9:1). The area of each plate corresponding to added 5-HETE standard was visualized in an iodine chamber. The amount of ^14 C-5-HETE presented was quantitated by liquid scintillation counting in Aquasol II (New England Nuclear) and corrected for recovery. The percent inhibition of lipoxygenase activity represents the decrease in the amount of product formed from arachidonic acid by the cells or cell supernatant in the presence of drug. The values for negative controls (assays incubated on ice in the presence of citric acid) were always less than 10% of the positive controls and were subtracted from each tube. The IC50 is the concentration of drug which is required for 50% inhibition of the enzyme, as determined graphically from assays using multiple concentrations of drug.

| SMILES | inhibition in vivo at 50 mg/kg [1] [%] | inhibition in vivo at 22 mg/kg ([1]; 22 mg/kg p.o.) [%] | IC50 (5-lipoxygenase) [nM] | inhibition in vivo at 40 mg/kg ([1]; 40 mg/kg p.o.) [%] |
| --- | --- | --- | --- | --- |
| CCOC(=O)CCCCCCC(=O)c1ccc2cc(OC)ccc2c1 [Example 1, Ethyl 8-(6-methoxy-2-naphthyl)-8-oxooctanoate] | 48 | – | – | – |
| CCOC(=O)CCCCC(=O)c1ccc2cc(OC)ccc2c1 [Example 2, Ethyl 6-(6-methoxy-2-naphthyl)-6-oxohexanoate] | – | 50 | > 10000 | – |
| COC(=O)CCCCCCC(=O)c1ccc2cc(OC)ccc2c1 [Example 4, Methyl 8-(6-methoxy-2-naphthyl)-8-oxooctanoate] | 53 | – | – | – |
| COc1ccc2cc(C(=O)CCCCCCC(=O)O)ccc2c1 [Example 6, 8-(6-Methoxy-2-naphthyl)-8-oxooctanoic acid] | 47 | – | – | – |
| CCOC(=O)CCCCC(=O)c1ccc2cc(O)ccc2c1 [Example 8, Ethyl 6-(6-hydroxy-2-naphthyl)-6-oxohexanoate] | 12 | – | > 10000 | – |
| C=CCOc1ccc2cc(C(=O)CCCCC(=O)OCC)ccc2c1 [Example 12, Ethyl 6-(6-allyloxy-2-naphthyl)-6-oxohexanoate] | 44 | – | > 10000 | – |
| C#CCOc1ccc2cc(C(=O)CCCCC(=O)OCC)ccc2c1 [Example 14, Ethyl 6-(6-propynyloxy-2-naphthyl)-6-oxohexanoate] | 23 | – | – | – |
| COc1ccc2cc(C(=O)CCCCC(=O)N(C)O)ccc2c1 [Example 15, N-Hydroxy-N-methyl-6-(6-methoxy-2-naphthyl)-6-oxohexanamide] | – | – | 250 | 34 |
| COc1ccc2cc(C(=O)CCCCC(=O)NO)ccc2c1 [Example 16, N-Hydroxy-6-(6-methoxy-2-naphthyl)-6-oxohexanamide] | – | – | 10000 | – |
| CCN(O)C(=O)CCCCC(=O)c1ccc2cc(OC)ccc2c1 [Example 17, N-Ethyl-N-hydroxy-6-(6-methoxy-2-naphthyl)-6-oxohexanamide] | 23 | – | 110 | – |
| CCCCN(O)C(=O)CCCCC(=O)c1ccc2cc(OC)ccc2c1 [Example 18, N-Butyl-N-hydroxy-6-(6-methoxy-2-naphthyl)-6-oxohexanamide] | – | – | 370 | – |
| CCCCCCCN(O)C(=O)CCCCC(=O)c1ccc2cc(OC)ccc2c1 [Example 19, N-Heptyl-N-hydroxy-6-(6-methoxy-2-naphthyl)-6-oxohexanamide] | – | – | 1600 | – |
| COc1ccc2cc(C(=O)CCCCC(=O)N(O)C(C)(C)C)ccc2c1 [Example 20, N-tert-Butyl-N-hydroxy-6-(6-methoxy-2-naphthyl)-6-oxohexanamide] | – | – | 450 | – |
| COc1ccc2cc(C(=O)CCCCC(=O)N(O)C3CCCCC3)ccc2c1 [Example 21, N-Hydroxy-N-cyclohexyl-6-(6-methoxy-2-naphthyl)-6-oxohexanamide] | 33 | – | 400 | – |
| COc1ccc2cc(C(=O)CCCCC(=O)N(O)c3ccccc3)ccc2c1 [Example 22, N-Hydroxy-N-phenyl-6-(6-methoxy-2-naphthyl)-6-oxohexanamide] | 28 | – | 100 | – |
| COc1ccc2cc(C(=O)CCCCC(=O)N(C)OC)ccc2c1 [Example 23, N-Methoxy-N-methyl-6-(6-methoxy-2-naphthyl)-6-oxohexanamide] | 60 | – | > 10000 | – |
| COc1ccc2cc(C(=O)CCCCC(=O)N(O)C(C)C)ccc2c1 [Example 24, N-Hydroxy-N-isopropyl-6-(6-methoxy-2-naphthyl)-6-oxohexanamide] | 51 | – | 120 | – |
